Publication PMC6272127, “Synthesis, Antiproliferative Activity and Molecular Properties Predictions of Galloyl Derivatives” (Molecules, 2015)
Converted amounts (≈) assume the structure as drawn. Where two headings read alike, the source gives them in different places.

Key:
HT-29 (colon) = assay: Anticancer assay in vitro (sulforhodamine B), HT-29; format: cell-based; conditions: for GI50: HT-29, 48 h, SRB; for TGI: HT-29, total growth inhibition, 48 h
Procedure: (§1) The experiments were performed in triplicate.

MCF-7 (breast) = assay: Anticancer assay in vitro (sulforhodamine B), MCF-7; format: cell-based; conditions: for GI50: MCF-7, 48 h, SRB
Procedure: as §1

HaCaT (keratinocytes) = assay: Anticancer assay in vitro (sulforhodamine B), HaCaT; format: cell-based; conditions: 48 h; for GI50: SRB; for TGI: total growth inhibition
Procedure: as §1

[1] = tested on: NCI-ADR/RES (breast expressing the multiple drug resistance phenotype); assay: cells; format: cell-based; conditions: for TGI / GI50: NCI/ADR-RES; for GI50: SRB
Procedure: as §1

PC-3 (prostate) = assay: cells; format: cell-based; conditions: for GI50: PC-3, 48 h, SRB; for TGI: PC-3, total growth inhibition, 48 h
Procedure: as §1

[2] = tested on: NCI-H460 (lung, non-small cells); assay: cells; format: cell-based; conditions: for GI50: NCI-H460, 48 h, SRB; for TGI: NCI-H460, total growth inhibition, 48 h
Procedure: as §1

K-562 (leukemia) = assay: cells; format: cell-based; conditions: for GI50: K-562, 48 h, SRB
Procedure: as §1

786-0 (renal) = assay: cells; format: cell-based; conditions: for GI50: 786-0, 48 h, SRB; for TGI: 786-0, total growth inhibition, 48 h
Procedure: as §1

U251 (glioma, CNS) = assay: cells; conditions: for TGI: U251, total growth inhibition, 48 h
Procedure: The GI50 values (growth inhibitory activity) (Table 1) refer to the drug concentration that produces a 50% reduction of cellular growth compared with the untreated control cells. The TGI (cytostatic activity) and LC50 (cytotoxic activity) values (Table 2) refer to the drug concentration required for total growth inhibition and killing 50% of the cells, respectively.
The synthesized compounds were assessed in the following ten human tumor cell lines from various tissues kindly provide by the National Cancer Institute (Frederick, MD, USA): U251 (glioma, CNS), MCF-7 (breast), NCI-ADR/RES (breast expressing the multiple drug resistance phenotype), 786-0 (renal), NCI-H460 (lung, non-small cells), PC-3 (prostate), OVCAR-3 (ovarian), HT-29 (colon), K-562 (leukemia) and HaCaT (keratinocytes). Stock cultures were grown in media containing 5 mL of RPMI 1640 (Gibco BRL) supplemented with 5% fetal bovine serum. Gentamicin ([…]) was added to the experimental cultures. Cells in 96-well plates (100 µL cells/well) were exposed to sample concentrations in DMSO/RPMI (0.25, 2.5, 25, and 250 µg/mL) at 37 °C and 5% CO2 for 48 h. […] Next, cells were fixed with 50% trichloroacetic acid, and cell proliferation was determined by spectrophotometric quantification (540 nm) of cellular protein content employing the sulforhodamine B assay. Doxorubicin (0.025–25 µg/mL) was used as a positive control. Three measurements were obtained: first at time point zero (T0, at the beginning of incubation) and then 48 h post-incubation for both the compound-free (C) and tested (T) cells. Cell proliferation was determined using the equation 100 × [(T − T0)/C − T0]. A cytostatic effect was observed when T ≥ T0, while a cytocidal effect occurred when T < T0. The experiments were performed in triplicate.

OVCAR-3 (ovarian) = assay: Anticancer assay in vitro (sulforhodamine B), OVCAR-3; format: cell-based; conditions: for TGI: OVCAR-3, total growth inhibition, 48 h; for GI50: OVCAR-3, 48 h, SRB
Procedure: as §1

[3] = tested on: ten human tumor cell lines; assay: Anticancer assay in vitro (sulforhodamine B), statements over the panel of cell lines; format: cell-based; conditions: bound or range over all (for 4: nine) human tumor cell lines, read-out: GI50 values over the cell lines tested
Procedure: as §1

[4] = MCF-7, total growth inhibition, 48 h
[5] = K-562, total growth inhibition, 48 h

Molecule	LC50 (HT-29 (colon))	GI50 (HT-29 (colon)) [µM]	TGI (HT-29 (colon)) [µg/mL]	GI50 (MCF-7 (breast)) [µM]	TGI (MCF-7 (breast); [4]) [µg/mL]	GI50 (HaCaT (keratinocytes)) [µM]	TGI (HaCaT (keratinocytes)) [µg/mL]	GI50 ([1]; 48 h) [µM]	TGI ([1]; total growth inhibition, 48 h) [µg/mL]	LC50 (PC-3 (prostate))	GI50 (PC-3 (prostate)) [µM]	TGI (PC-3 (prostate)) [µg/mL]	LC50 [2]	GI50 [2] [µM]	TGI [2] [µg/mL]	LC50 (K-562 (leukemia))	GI50 (K-562 (leukemia)) [µM]	TGI (K-562 (leukemia); [5]) [µg/mL]	TGI (U251 (glioma, CNS)) [µg/mL]	TGI (OVCAR-3 (ovarian)) [µg/mL]	further results
Galloyl-2-methylthio-1,3,4-oxadiazole [Compound 10]	(60.32) µg/mL	2.77	17.66	0.34	3.20	2.5	18.00	0.17	2.33	(69.30) µg/mL	7.43	28.45	(65.78) µg/mL	9.44	29.52	(20.20) µg/mL	0.6	3.70	16.40	2.38	CC50 (MCF-7 (breast)): 20.2 µM; LC50 (MCF-7 (breast)): (20.24) µg/mL; TGI (MCF-7 (breast); MCF-7, as printed in the text): 3.20 µM; CC50 [1]: 19.7 µM; LC50 [1]: (19.65) µg/mL; TGI [1]: 2.33 µM; CC50 (K-562 (leukemia)): 20.2 µM; TGI (K-562 (leukemia); K-562, as printed in the text): 3.70 µM; GI50 (786-0 (renal)): 9.2 µM; TGI (786-0 (renal)): 29.40 µg/mL; LC50 (U251 (glioma, CNS)): (30.43) µg/mL; GI50 (U251 (glioma, CNS); U251, 48 h, SRB): 5.2 µM; CC50 (OVCAR-3 (ovarian)): 17.3 µM; LC50 (OVCAR-3 (ovarian)): (17.34) µg/mL
O=C(N/N=C/c1ccccc1)c1cc(O)c(O)c(O)c1 [Compound 4, N'-(Benzylidene)galloyl hydrazide]					23.54															29.61 (≈ 109 µM)	GI50 (HT-29 (colon); Homo sapiens): 7.53 µM; GI50 (MCF-7 (breast); Homo sapiens, MCF7): 5.55 µM; GI50 ([3]; Homo sapiens): 1.24 to 9.96 µM; GI50 (HaCaT (keratinocytes); Homo sapiens): 8.29 µM; GI50 ([1]; Homo sapiens, 48 h): 7.16 µM; GI50 (PC-3 (prostate); Homo sapiens): 5.07 µM; GI50 ([2]; Homo sapiens): 11.2 µM; GI50 (K-562 (leukemia); Homo sapiens, K562): 9.96 µM; GI50 (786-0 (renal); Homo sapiens): 9.06 µM; GI50 (U251 (glioma, CNS); Homo sapiens, U-251, 48 h): 7.8 µM; GI50 (OVCAR-3 (ovarian); Homo sapiens): 1.24 µM
Galloyl-2-thioxo-1,3,4-oxadiazole [Compound 9]	(58.99) µg/mL	2.61	13.74	1.08	5.06	2.25	16.53	2.83	15.86	(56.99) µg/mL	6.05	18.09	(42.67) µg/mL	8.77	19.43	(58.99) µg/mL	1.72	11.35	14.58	13.62	GI50 [3]: < 8.9 µM; GI50 (786-0 (renal)): 8.9 µM; TGI (786-0 (renal)): 24.68 µg/mL; LC50 (U251 (glioma, CNS)): (41.26) µg/mL; GI50 (U251 (glioma, CNS); U251, 48 h, SRB): 4.2 µM; LC50 (OVCAR-3 (ovarian)): (58.99) µg/mL; GI50 (OVCAR-3 (ovarian)): 0.89 µM
O=C(N/N=C/c1ccc(O)cc1)c1cc(O)c(O)c(O)c1 [Compound 8, N'-(4-Hydroxybenzylidene)galloyl hydrazide]																			26.07 (≈ 90.4 µM)		GI50 (HaCaT (keratinocytes); Homo sapiens): 8.72 µM; GI50 ([2]; Homo sapiens): 9.38 µM; GI50 (K-562 (leukemia); Homo sapiens, K562): 9.17 µM; GI50 (786-0 (renal); Homo sapiens): 26.8 µM; GI50 (U251 (glioma, CNS); Homo sapiens, U-251, 48 h): 6.6 µM; GI50 (OVCAR-3 (ovarian); Homo sapiens): 1.35 µM
